The values that follow are results of earlier work, collected in patent US8637495B2, “Osteoarthritis diet formulations” (Nestec S.A., priority 2004, dated 2014).

Each structure is given as a SMILES string.

For data set [1] the following is noted: orally administered.
Data set [2] relates to human patients with OA of the knee.

Take `N[C@H]1C(O)O[C@H](CO)[C@@H](O)[C@@H]1O` (some centres unmarked) [glucosamine, Glucosamine]: in data set [1], the “radiolabel detected in exhaled CO2” value was 70% and the retained in tissue result was “approximately 10%”. The fraction non-ionized result in data set [1] (physiologic pH of the small intestine) was “More than 50%”. Further, in data set [2] (1500 mg glucosamine per day, human, OA of the knee), the “clinical signs of OA” value is “significant improvement”. Moreover, in data set [2] (oral, two studies, patients followed for three years), the “long-term progression of OA” value is “efficiently inhibited”.
